Measurements as given in patent US10131644B2, “Aryl sultam derivatives as RORc modulators” (Genentech, Inc., priority 2014, dated 2018).
pIC50: −log10 of the molar value.

Each compound was assayed against T1, RORc (Homo sapiens, UniProt P51449) (assay: In vitro RORc ligand binding assay (25-[3H]hydroxycholesterol displacement)). Conditions: IC50, IC50 values for RORc; unit inferred.
T1 sequence (P51449 269-508 limits assumed): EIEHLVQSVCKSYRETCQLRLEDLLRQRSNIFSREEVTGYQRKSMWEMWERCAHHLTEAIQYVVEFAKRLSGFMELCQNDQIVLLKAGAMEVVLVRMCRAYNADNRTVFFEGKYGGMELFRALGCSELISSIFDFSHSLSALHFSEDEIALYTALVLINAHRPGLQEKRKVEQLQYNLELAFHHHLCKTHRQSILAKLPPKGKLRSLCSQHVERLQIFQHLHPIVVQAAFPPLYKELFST
In the case of `C[C@H]1CC[C@H](c2ccccc2)S(=O)(=O)N1Cc1ccc([C@]2(C#N)CC[C@@H](NC=O)CC2)cc1` [Example 19, N-{4-Cyano-4-[4-((3S,6R)-3-methyl-1,1-dioxo-6-phenyl-[1,2]thiazinan-2-ylmethyl)-phenyl]-cyclohexyl}-formamide], the pIC50 was 6.51. Work on `CCOC(=O)CNC1(c2ccc(CN3[C@@H](C)CC[C@H](c4ccccc4)S3(=O)=O)c(F)c2)CCOCC1` [Compound 161, ethyl 2-[[4-[3-fluoro-4-[[(3S,6R)-3-methyl-1,1-dioxo-6-phenyl-thiazinan-2-yl]methyl]phenyl]tetrahydropyran-4-yl]amino]acetate] yielded a pIC50 of 7.53. `COCCOCC1(c2ccc(CN3[C@@H](C)CC[C@H](c4ccccc4)S3(=O)=O)c(F)c2)CCOCC1` [Compound 82, (3S,6R)-2-[[2-fluoro-4-[4-(2-methoxyethoxymethyl)tetrahydropyran-4-yl]phenyl]methyl]-3-methyl-6-phenyl-thiazinane 1,1-dioxide] showed a pIC50 of 7.15. In the case of `CC(=O)NCCNC(=O)C1(c2ccc(CN3[C@@H](C)CC[C@H](c4ccccc4)S3(=O)=O)c(F)c2)CCOCC1` [Compound 50, N-(2-acetamidoethyl)-4-[3-fluoro-4-[[(3S,6R)-3-methyl-1,1-dioxo-6-phenyl-thiazinan-2-yl]methyl]phenyl]tetrahydropyran-4-carboxamide], the pIC50 was 6.60. `C[C@H]1CC[C@H](c2ccccc2)S(=O)(=O)N1Cc1ccc(C2(C#N)CC(F)(F)C2)cc1F` [Compound 165, 3,3-difluoro-1-[3-fluoro-4-[[(3S,6R)-3-methyl-1,1-dioxo-6-phenyl-thiazinan-2-yl]methyl]phenyl]cyclobutanecarbonitrile] gave a pIC50 of 7.28. In the case of `CC(=O)N1CCC(O)(c2ccc(CN3[C@@H](C)CCC(c4ccccc4)S3(=O)=O)cc2)CC1` (stereo partly drawn) [Compound 49, 1-{4-Hydroxy-4-[4-((S)-3-methyl-1,1-dioxo-6-phenyl-[1,2]thiazinan-2-ylmethyl)-phenyl]-piperidin-1-yl}-ethanone], the pIC50 was 6.92. `COC(=O)C1(c2cc(F)c(CN3[C@@H](C)CC[C@H](c4ccccc4)S3(=O)=O)cc2F)CCC(=O)CC1` [Compound 120, methyl 1-[2,5-difluoro-4-[[(3S,6R)-3-methyl-1,1-dioxo-6-phenyl-thiazinan-2-yl]methyl]phenyl]-4-oxo-cyclohexanecarboxylate] gave a pIC50 of 8.21. In the case of `C[C@H]1CC[C@H](c2ccccc2)S(=O)(=O)N1Cc1ccc(C2(CNC(=O)OC(C)(C)C)CCOCC2)cc1F` [Compound 74, tert-butyl N-[[4-[3-fluoro-4-[[(3S,6R)-3-methyl-1,1-dioxo-6-phenyl-thiazinan-2-yl]methyl]phenyl]tetrahydropyran-4-yl]methyl]carbamate], the pIC50 was 6.85. In the case of `C[C@H]1CC[C@H](c2ccccc2)S(=O)(=O)N1Cc1ccc(C2(/C=C/C#N)CCOCC2)cc1F` [Compound 72, (E)-3-[4-[3-fluoro-4-[[(3S,6R)-3-methyl-1,1-dioxo-6-phenyl-thiazinan-2-yl]methyl]phenyl]tetrahydropyran-4-yl]prop-2-enenitrile], the pIC50 was 8.06. With `C[C@H]1CC[C@H](c2ccccc2)S(=O)(=O)N1Cc1ccc(C2([C@@H](O)CCO)CCOCC2)cc1F` [Compound 117, (1S)-1-[4-[3-fluoro-4-[[(3S,6R)-3-methyl-1,1-dioxo-6-phenyl-thiazinan-2-yl]methyl]phenyl]tetrahydropyran-4-yl]propane-1,3-diol] the pIC50 was 7.45. In the case of `CC(=O)N1CC(OCC(N)=O)(c2cc(F)c(CN3[C@@H](C)CC[C@H](c4ccccc4)S3(=O)=O)cc2F)C1` [Compound 175, 2-[1-acetyl-3-[2,5-difluoro-4-[[(3S,6R)-3-methyl-1,1-dioxo-6-phenyl-thiazinan-2-yl]methyl]phenyl]azetidin-3-yl]oxyacetamide], the pIC50 was 8.31. Compound `C[C@H]1CC[C@H](c2ccccc2)S(=O)(=O)N1Cc1cc(F)c(C2(OCC(O)CO)CCOCC2)cc1F` (stereo partly drawn) [Compound 151, 3-[4-[2,5-difluoro-4-[[(3S,6R)-3-methyl-1,1-dioxo-6-phenyl-thiazinan-2-yl]methyl]phenyl]tetrahydropyran-4-yl]oxypropane-1,2-diol] has a pIC50 of 8.11. Compound `C[C@H]1CC[C@H](c2ccccc2)S(=O)(=O)N1Cc1ccc(C2(C#N)CCOCC2)cc1F` [Compound 61, 4-[3-fluoro-4-[[(3S,6R)-3-methyl-1,1-dioxo-6-phenyl-thiazinan-2-yl]methyl]phenyl]tetrahydropyran-4-carbonitrile] has a pIC50 of 6.73. For `C[C@H]1CC[C@H](c2ccccc2)S(=O)(=O)N1Cc1ccc(C2(NC(=O)C(O)CO)CCOCC2)cc1F` (stereo partly drawn) [Compound 111, N-[4-[3-fluoro-4-[[(3S,6R)-3-methyl-1,1-dioxo-6-phenyl-thiazinan-2-yl]methyl]phenyl]tetrahydropyran-4-yl]-2,3-dihydroxy-propanamide], the pIC50 was 6.86. Work on `C[C@@H](O)CNC(=O)C1(c2ccc(CN3[C@@H](C)CC[C@H](c4ccccc4)S3(=O)=O)c(F)c2)CCOCC1` [Compound 66] yielded a pIC50 of 7.32. With `CCOC(=O)CCC1(c2ccc(CN3[C@@H](C)CC[C@H](c4ccccc4)S3(=O)=O)c(F)c2)CCOCC1` [Compound 79, ethyl 3-[4-[3-fluoro-4-[[(3S,6R)-3-methyl-1,1-dioxo-6-phenyl-thiazinan-2-yl]methyl]phenyl]tetrahydropyran-4-yl]propanoate] the pIC50 was 8.31. `C[C@H]1CC[C@H](c2ccccc2)S(=O)(=O)N1Cc1ccc(C2(C(=O)NCCC#N)CCOCC2)cc1F` [Compound 65, N-(2-cyanoethyl)-4-[3-fluoro-4-[[(3S,6R)-3-methyl-1,1-dioxo-6-phenyl-thiazinan-2-yl]methyl]phenyl]tetrahydropyran-4-carboxamide] gave a pIC50 of 7.28. Work on `COC(=O)C1(c2ccc(CN3C(C)CCC(c4ccccc4)S3(=O)=O)c(F)c2)CCC(n2cnnc2)CC1` (stereo not drawn) [Compound 46, methyl 1-(3-fluoro-4-((3-methyl-1,1-dioxido-6-phenyl-1,2-thiazinan-2-yl)methyl)phenyl)-4-(4H-1,2,4-triazol-4-yl)cyclohexanecarboxylate] yielded a pIC50 of 7.27. With `C[C@H]1CC[C@H](c2ccccc2)S(=O)(=O)N1Cc1ccc([C@]2(C(=O)N(C)C)CC[C@H](n3cnnc3)CC2)cc1` [Example 16, 1-[4-((3S,6R)-3-Methyl-1,1-dioxo-6-phenyl-[1,2]thiazinan-2-ylmethyl)-phenyl]-4-[1,2,4]triazol-4-yl-cyclohexanecarboxylic acid dimethylamide] the pIC50 was 5.62. `CC(=O)N1CCC(C(N)=O)(c2cc(F)c(CN3[C@@H](C)CC[C@H](c4ccccc4)S3(=O)=O)cc2F)CC1` [Compound 149, 1-acetyl-4-[2,5-difluoro-4-[[(3S,6R)-3-methyl-1,1-dioxo-6-phenyl-thiazinan-2-yl]methyl]phenyl]piperidine-4-carboxamide] showed a pIC50 of 7.94. For `C[C@H]1CC[C@H](c2ccccc2)S(=O)(=O)N1Cc1ccc(C2(NC[C@H](O)CO)CCOCC2)cc1F` [Compound 107, (2S)-3-[[4-[3-fluoro-4-[[(3S,6R)-3-methyl-1,1-dioxo-6-phenyl-thiazinan-2-yl]methyl]phenyl]tetrahydropyran-4-yl]amino]propane-1,2-diol], the pIC50 was 7.65. Work on `C[C@H]1CC[C@H](c2ccccc2)S(=O)(=O)N1Cc1ccc(C2(NCCO)CCOCC2)cc1F` [Compound 106, 2-[[4-[3-fluoro-4-[[(3S,6R)-3-methyl-1,1-dioxo-6-phenyl-thiazinan-2-yl]methyl]phenyl]tetrahydropyran-4-yl]amino]ethanol] yielded a pIC50 of 6.86. `C[C@H]1CC[C@H](c2ccccc2)S(=O)(=O)N1Cc1ccc(C2(C(C)(C)O)CCOCC2)cc1F` [Compound 76, 2-[4-[3-fluoro-4-[[(3S,6R)-3-methyl-1,1-dioxo-6-phenyl-thiazinan-2-yl]methyl]phenyl]tetrahydropyran-4-yl]propan-2-ol] was tested, and the pIC50 was 7.49. With `C[C@H]1CC[C@H](c2ccccc2)S(=O)(=O)N1Cc1cc(F)c(C2(CO)CCC(n3cnnc3)CC2)cc1F` (stereo partly drawn) [Compound 134, [1-[2,5-difluoro-4-[[(3S,6R)-3-methyl-1,1-dioxo-6-phenyl-thiazinan-2-yl]methyl]phenyl]-4-(1,2,4-triazol-4-yl)cyclohexyl]methanol] the pIC50 was 7.06. With `COC1(OC)CC(C#N)(c2ccc(CN3[C@@H](C)CC[C@H](c4ccccc4)S3(=O)=O)c(F)c2)C1` [Compound 160, 1-[3-fluoro-4-[[(3S,6R)-3-methyl-1,1-dioxo-6-phenyl-thiazinan-2-yl]methyl]phenyl]-3,3-dimethoxy-cyclobutanecarbonitrile] the pIC50 was 7.84. For `C[C@H]1CC[C@H](c2ccccc2)S(=O)(=O)N1Cc1ccc(C2(C(=O)NCC#N)CCOCC2)cc1F` [Compound 57, N-(cyanomethyl)-4-[3-fluoro-4-[[(3S,6R)-3-methyl-1,1-dioxo-6-phenyl-thiazinan-2-yl]methyl]phenyl]tetrahydropyran-4-carboxamide], the pIC50 was 7.10. `C[C@H]1CC[C@H](c2ccccc2)S(=O)(=O)N1Cc1ccc(C2([C@H](O)CCO)CCOCC2)cc1F` [Compound 118, (1R)-1-[4-[3-fluoro-4-[[(3S,6R)-3-methyl-1,1-dioxo-6-phenyl-thiazinan-2-yl]methyl]phenyl]tetrahydropyran-4-yl]propane-1,3-diol] showed a pIC50 of 7.78. Work on `C[C@H]1CC[C@H](c2ccccc2)S(=O)(=O)N1Cc1cc(F)c(C2(C(=O)NCC#N)CC2)cc1F` [Compound 128, N-(cyanomethyl)-1-[2,5-difluoro-4-[[(3S,6R)-3-methyl-1,1-dioxo-6-phenyl-thiazinan-2-yl]methyl]phenyl]cyclopropane-carboxamide] yielded a pIC50 of 6.41. `C[C@H]1CC[C@@H](c2ccccc2)S(=O)(=O)N1Cc1cc(F)c(C2(CO)CCC(O)CC2)cc1F` (stereo partly drawn) [Compound 131] was tested, and the pIC50 was 7.14. Compound `C[C@H]1CC[C@H](c2ccccc2)S(=O)(=O)N1Cc1ccc([C@]2(C#N)CC[C@@H](n3cnnc3)CC2)cc1` [Example 10, 1-[4-((3S,6R)-3-Methyl-1,1-dioxo-6-phenyl-[1,2]thiazinan-2-ylmethyl)-phenyl]-4-[1,2,4]triazol-4-yl-cyclohexanecarbonitrile] has a pIC50 of 6.82.
